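Test compounds were applied to cells in 96-well plates for 48 hours at 5 doses. At the GI50, growth is halved. The concentration for full growth arrest is given as TGI.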
Tests used:
Experiment in all cases: NCI tumour cell line growth inhibition, 48 h
[1] = system: SK-MEL-5 melanoma
[2] = system: M19-MEL melanoma
[3] = system: OVCAR-8 ovarian
[4] = system: SW-620 colon
[5] = system: HL-60(TB) leukemia
[6] = system: NCI-H460 lung
[7] = system: K-562 leukemia
[8] = system: SF-539 CNS
[9] = system: NCI-H522 lung
[10] = system: SN12C renal
[11] = system: CCRF-CEM leukemia
[12] = system: UO-31 renal
[13] = system: A498 renal
[14] = system: SNB-75 CNS
[15] = system: NCI-H23 lung
[16] = system: 786-0 renal
[17] = system: A549 NSCLC
[18] = system: HT29 colon
[19] = system: HCT-15 colon
[20] = system: XF 498 CNS
[21] = system: DLD-1 colon
[22] = system: HCC-2998 colon
[23] = system: OVCAR-3 ovarian
[24] = system: SK-MEL-28 melanoma
[25] = system: COLO 205 colon
[26] = system: RXF-631 renal
[27] = system: ACHN renal
[28] = system: U251 CNS
[29] = system: OVCAR-5 ovarian
[30] = system: M14 melanoma
[31] = system: RPMI-8226 leukemia
[32] = system: SF-268 CNS
[33] = system: SK-OV-3 ovarian
[34] = system: TK-10 renal
[35] = system: SF-295 CNS
[36] = system: CAKI-1 renal
[37] = system: OVCAR-4 ovarian
[38] = system: UACC-257 melanoma
[39] = system: HOP-18 NSCLC
[40] = system: SNB-19 CNS
[41] = system: KM12 colon
[42] = system: EKVX NSCLC
[43] = system: HOP-62 NSCLC
[44] = system: MALME-3M melanoma
[45] = system: KM20L2 colon
[46] = system: UACC-62 melanoma
[47] = system: NCI-H226 lung
[48] = system: LOX IMVI melanoma
[49] = system: LXFL 529 NSCLC
[50] = system: SK-MEL-2 melanoma
[51] = system: RXF 393 renal
[52] = system: DMS 114 small cell lung
[53] = system: IGROV1 ovarian
[54] = system: MOLT-4 leukemia
[55] = system: DMS 273 small cell lung
[56] = system: NCI/ADR-RES ovarian
[57] = system: HCT-116 colon
[58] = system: HOP-92 NSCLC
[59] = system: SR leukemia
[60] = system: DU-145 prostate
[61] = system: BT-549 breast
[62] = system: SNB-78 CNS
[63] = system: MDA-MB-231 breast
[64] = system: HS 578T breast
[65] = system: PC-3 prostate
[66] = system: MDA-MB-435
[67] = system: MCF7 breast
[68] = system: T-47D breast
[69] = system: MDA-N

SMILES: CC1=C(C(=O)Nc2ccccc2C)C(c2ccc([N+](=O)[O-])cc2)C(C(=O)Nc2ccccc2C)=C(C)N1
- TGI [1]: > 100 µM
- TGI [2]: > 100 µM
- TGI [3]: > 100 µM
- TGI [4]: > 100 µM
- TGI [5]: 47 µM
- TGI [6]: > 100 µM
- TGI [7]: > 100 µM
- TGI [8]: > 100 µM
- TGI [9]: > 100 µM
- TGI [10]: > 100 µM
- TGI [11]: 90.5 µM
- TGI [12]: > 100 µM
- TGI [13]: 80.5 µM
- TGI [14]: 86.5 µM
- TGI [15]: > 100 µM
- TGI [16]: > 100 µM
- TGI [17]: > 100 µM
- TGI [18]: > 100 µM
- TGI [19]: > 100 µM
- TGI [20]: > 100 µM
- TGI [21]: > 100 µM
- TGI [22]: > 100 µM
- TGI [23]: > 100 µM
- TGI [24]: > 100 µM
- TGI [25]: > 100 µM
- TGI [26]: > 100 µM
- TGI [27]: > 100 µM
- TGI [28]: > 100 µM
- TGI [29]: > 100 µM
- TGI [30]: > 100 µM
- TGI [31]: > 100 µM
- TGI [32]: > 100 µM
- TGI [33]: > 100 µM
- TGI [34]: > 100 µM
- TGI [35]: > 100 µM
- TGI [36]: > 100 µM
- TGI [37]: > 100 µM
- TGI [38]: > 100 µM
- TGI [39]: > 100 µM
- TGI [40]: > 100 µM
- TGI [41]: > 100 µM
- TGI [42]: > 100 µM
- TGI [43]: > 100 µM
- TGI [44]: > 100 µM
- TGI [45]: > 100 µM
- TGI [46]: > 100 µM
- TGI [47]: > 100 µM
- TGI [48]: > 100 µM
- TGI [49]: > 100 µM
- TGI [50]: > 100 µM
- TGI [51]: 88.2 µM
- TGI [52]: > 100 µM
- TGI [53]: > 100 µM
- TGI [54]: > 100 µM
- TGI [55]: > 100 µM

SMILES: Cc1cc(O)c2c(c1)C(=O)c1cc(O)cc(O)c1C2=O
- TGI [1]: 24.4 µM
- GI50 [56]: 36.8 µM
- TGI [56]: > 100 µM
- GI50 [3]: 34.3 µM
- TGI [3]: > 100 µM
- TGI [4]: > 100 µM
- TGI [57]: > 58.9 µM
- TGI [58]: 56.8 µM
- TGI [5]: 76.5 µM
- TGI [59]: 68 µM
- TGI [6]: > 78.4 µM
- GI50 [7]: 28 µM
- TGI [7]: > 100 µM
- GI50 [8]: 54.2 µM
- TGI [8]: > 100 µM
- TGI [9]: > 66.3 µM
- TGI [10]: > 78.9 µM
- TGI [11]: > 100 µM
- TGI [13]: 56.5 µM
- TGI [14]: > 81.6 µM
- GI50 [60]: 46.2 µM
- TGI [60]: > 100 µM
- TGI [15]: > 63.6 µM
- GI50 [16]: 25.5 µM
- TGI [16]: 84.6 µM
- TGI [17]: > 100 µM
- TGI [18]: > 100 µM
- TGI [19]: > 80.2 µM
- TGI [20]: 86.7 µM
- TGI [21]: > 100 µM
- TGI [22]: > 100 µM
- GI50 [23]: 14.7 µM
- TGI [23]: 42.2 µM
- TGI [24]: > 82.9 µM
- TGI [25]: 42 µM
- TGI [26]: > 100 µM
- TGI [27]: 73.3 µM
- GI50 [61]: 25.4 µM
- TGI [61]: 86 µM
- TGI [28]: > 96.3 µM
- TGI [29]: > 100 µM
- TGI [30]: 60.9 µM
- TGI [62]: > 100 µM
- TGI [31]: 99.8 µM
- GI50 [63]: 16.1 µM
- TGI [63]: 57.5 µM
- TGI [32]: 97.5 µM
- TGI [33]: > 91.9 µM
- TGI [34]: > 81.1 µM
- TGI [35]: > 83.1 µM
- TGI [36]: 52.9 µM
- GI50 [64]: 26.2 µM
- TGI [64]: 82.4 µM
- TGI [37]: 98.8 µM
- TGI [38]: > 100 µM
- TGI [39]: 37 µM
- TGI [40]: > 100 µM
- TGI [41]: > 57.5 µM
- GI50 [42]: 24.3 µM
- TGI [42]: > 100 µM
- TGI [43]: 44.3 µM
- TGI [44]: 50.6 µM
- TGI [45]: > 100 µM
- GI50 [46]: 11.2 µM
- TGI [46]: 38.1 µM
- TGI [47]: > 70.9 µM
- TGI [48]: 47.3 µM
- GI50 [65]: 25 µM
- TGI [65]: > 100 µM
- GI50 [66]: 18.1 µM
- TGI [66]: 62.5 µM
- TGI [49]: 85.3 µM
- TGI [50]: > 74.3 µM
- TGI [51]: > 100 µM
- GI50 [67]: 27.7 µM
- TGI [67]: > 100 µM
- TGI [52]: > 100 µM
- GI50 [68]: 21.2 µM
- TGI [68]: > 100 µM
- GI50 [53]: 65.2 µM
- TGI [53]: > 100 µM
- TGI [54]: > 100 µM
- TGI [55]: 62.2 µM

SMILES: COC(=O)c1ccccc1NC(=O)C(=O)CC(=O)c1ccccc1NC1=CC(=O)C(=O)c2ccccc21
- TGI [1]: 14.2 µM
- TGI [2]: 4.49 µM
- TGI [3]: 60.9 µM
- TGI [4]: 23 µM
- TGI [57]: 20 µM
- TGI [58]: 32.5 µM
- TGI [5]: 12 µM
- TGI [59]: > 100 µM
- TGI [6]: 65.4 µM
- TGI [7]: > 100 µM
- TGI [8]: 46.2 µM
- TGI [9]: 21.4 µM
- TGI [10]: 15.1 µM
- TGI [11]: 33.9 µM
- TGI [12]: 69 µM
- TGI [13]: > 56.2 µM
- TGI [14]: 40.3 µM
- TGI [60]: > 53.8 µM
- TGI [15]: 24 µM
- TGI [16]: 30.8 µM
- TGI [17]: 41 µM
- TGI [18]: > 74.9 µM
- TGI [19]: 34.1 µM
- TGI [20]: 30.9 µM
- TGI [21]: 30.4 µM
- TGI [22]: 66.7 µM
- TGI [23]: 12.3 µM
- TGI [24]: 29.4 µM
- TGI [25]: 53.1 µM
- TGI [26]: > 80.8 µM
- TGI [27]: 59.5 µM
- TGI [61]: 39.4 µM
- TGI [28]: 67.4 µM
- TGI [29]: 57.7 µM
- TGI [30]: 17.9 µM
- TGI [62]: > 100 µM
- TGI [31]: 35.1 µM
- TGI [63]: 23 µM
- TGI [32]: 30.3 µM
- TGI [33]: 96.1 µM
- TGI [34]: > 95.1 µM
- TGI [35]: > 49.8 µM
- TGI [36]: 74.1 µM
- TGI [64]: 37.2 µM
- TGI [37]: 36.2 µM
- TGI [38]: 14.8 µM
- TGI [39]: 29.6 µM
- TGI [40]: 77.5 µM
- TGI [41]: 52.8 µM
- TGI [42]: > 100 µM
- TGI [43]: > 74.8 µM
- TGI [44]: 11.1 µM
- TGI [45]: > 100 µM
- TGI [46]: 24.5 µM
- TGI [47]: 49.7 µM
- TGI [48]: 4.76 µM
- TGI [65]: 42.3 µM
- TGI [66]: 8.59 µM
- TGI [49]: 27.2 µM
- TGI [50]: 30.5 µM
- TGI [51]: 57.5 µM
- TGI [67]: 25.5 µM
- TGI [52]: 5.33 µM
- TGI [68]: > 95 µM
- TGI [53]: > 59.6 µM
- TGI [69]: 3.18 µM
- TGI [54]: 51.1 µM
- TGI [55]: 25.8 µM
